The target of series [1] is human Kv7.2 (Homo sapiens (Human), UniProt O43526). Description: SyncroPatch 384 electrophysiology, CHO cells stably expressing human Kv7.2. The format is cell-based. The procedure: (§1) The potency of Kv7 potentiators was determined using the SyncroPatch 384 (Nanion) high throughput electrophysiology platform.
(§2) CHO cells stably expressing either human Kv7.2, Kv7.4 or Kv7.5/7.3 under a constitutive CMV promoter were used for these studies. Cells were maintained in F12 Hams+1 mM L-glutamine (Hyclone) supplemented with 10% FBS (Sigma), 0.3×NEAA (Non-essential Gamino-acids) and 400 ug/ml G418 at 37° C. in 5% CO2. Cells were cultured in T-225 flasks (Nunc) for 2-3 days to reach 85-95% confluence prior to electrophysiological recording.
(§3) Earle's balanced salt solution (in mM): 135 NaCl, 5.4 KCl, 5 Glucose, 2 CaCl2, 1 MgCl2, 5 HEPES, pH 7.4. Seal enhancer solution (in mM): 90 NaCl, 3 KCl, 35 CaCl2, 10 MgCl2, 10 HEPES, pH 7.4. Extracellular recording solution (in mM): 71 NaCl, 70 NMDG, 13 KCl, 5 Glucose, 2 CaCl2, 1 MgCl2, 10 HEPES, pH 7.4. Intracellular recording solution (in mM): 130 KF, 20 KCl, 4 EGTA, 10 HEPES, 2 EDTA, 0.01 Escin, pH 7.2.
(§4) Cells were harvested for electrophysiological recording upon reaching appropriate confluence. Cells were first washed in DPBS (Hyclone, Cat #SH30028.03) and then 2 ml of Accutase (MP Biomedicals #1000449) was added at 28° C. until ˜90% of cells were suspended. F12 HAM's media+1 mM L-glutamine (Hyclone, SH30026.02) was then added to the flask to dilute the accutase. Cells were then triturated until a single cell suspension was achieved, a cell count was performed, and cells were centrifuged for 2 min. at 1,000 rpm. Media was then aspirated, and cells were resuspended in Earle's balanced salt solution to a concentration of 0.75×10^6 cells/ml and allowed to recover for 25 min at 10° C.
(§5) At the beginning of each assay, 20 μl of cell suspension was dispensed into each well of a multi-hole 384-well SyncroPatch chip by the onboard pipettor. Cell sealing was initiated, and seal enhancer solution was added to facilitate seal formation. Upon completion of sealing, cells were washed 3 times with extracellular recording solution and the assay voltage protocol was started. Human Kv7.2, Kv7.4 or Kv7.5/7.3 channels were evaluated using a voltage protocol in which cells were voltage-clamped at a holding potential of −60 mV. Potassium currents were continuously activated with a series of three voltage steps to −30 mV for 3 seconds, 40 mV for 1 second and −90 mV for 4 seconds with 12 seconds between successive voltage sweeps. Potassium currents were measured from the −90 mV repolarizing step. Baseline current was assessed for 3.5 minutes prior to the addition of 5.6 μM zinc pyrithione (1 μM for Kv7.4). Kv7.2, Kv7.4 or Kv7.5/7.3 current in the presence of zinc pyrithione was acquired over five minutes to allow channels to reach steady state activity prior to addition of test agents. Channel activity was monitored for three minutes preceding the addition of 30 μM ML-213 (3 minutes) to achieve maximum activation.
(§6) Data were collected on the SyncroPatch platform using PatchControl software (Nanion) and processed and analyzed using DataControl Software (Nanion). Percent activation was calculated from potassium current as follows: The average current for the 5 sweeps in the presence of zinc pyrithione immediately preceding test agent addition was taken as the ‘control’ data. Likewise, the average potassium current in the presence of test agents 5 sweeps immediately preceding addition of 30 μM ML-213 was determined for ‘drug’ data. The average potassium current 5 sweeps immediately prior to addition of 150 mM TEA+10 μM XE-991 was determined for ‘max activation’ data while average currents from 5 sweeps immediately following addition of TEA was determined for ‘max inhibition’ data. Percent activation for each of the 384-wells of a sealchip was calculated as ((‘drug’−‘max inhibition’)/(‘max activation’−‘max inhibition’))*100 with Pipeline Pilot (Accelrys). […]
Background: The patch-clamp technique gives a direct electrical read-out from membranes.

Series [2] is described as follows: Human liver microsomal clearance. The format is in vitro ADME. As to conditions: both sexes, liver microsomes, Table B, 0.5 μM compound, 0.25 mg/mL microsomes, NADPH, 37° C., read-out: Human liver microsomal intrinsic clearance CLint. On the procedure:
Pooled mixed gender human liver microsomes were purchased from BioIVT at a concentration of 20 mg protein/mL and stored at −80° C. Incubations were conducted in V-bottomed 350 μL polypropylene 96-well plates. Compounds were diluted in phosphate buffer (final concentrations 0.5 μM compound, 0.5% DMSO) and mixed with diluted liver microsomes (fc 0.25 mg/mL). This mixture was aliquoted onto the assay plate (six wells per compound) and pre-warmed at 37° C. for ten minutes. Addition of NADPH (fc 0.5 mM, final incubation volume 100 μL) to each well started the time course. Reactions were stopped at 0.5, 3, 5, 10, 20 & 30 minutes by addition of 150 μL acetonitrile containing internal standard (IS; 0.125 μg/mL daidzein) and stopped samples were removed to a clean polypropylene plate. At the end of the assay the plate was refrigerated for an hour and then centrifuged at 3000 rpm for 10 minutes at 4° C. A sample of the supernatant was removed to a fresh plate and diluted 10-fold with 50:50 acetonitrile:water, then heat sealed. Analysis was by liquid chromatography coupled with tandem mass spectrometry (LC-MS/MS) for analyte and IS levels. Ratios of the analyte and IS peak areas were generated for results calculation (IS ratio). Dextromethorphan and verapamil were included in each experiment as controls for high clearance compounds. IS ratio data were converted into natural log values which were plotted against time and a linear regression fit applied. The slope of the line was returned and converted into the elimination constant (kel) by multiplying by −1. The elimination constant was used to calculate the in vitro CLint: in vitro CLint (μL/min/mg protein) is kel* (1000/protein conc in mg/mL).
A general note: Liver microsomes are a subcellular fraction often used to study metabolism.

Series [3] addresses human Kv7.5/7.3 (Homo sapiens (Human), UniProt O43525+Q9NR82). Description: SyncroPatch 384 electrophysiology, CHO cells stably expressing human Kv7.5/7.3. The format is cell-based. Particulars: Table A; for Kv7.5/7.3/Kv7.2 selectivity ratio: Kv7.5/7.3 EC50 over Kv7.2 EC50. The procedure: as §1, §2, §3, §4, §5, §6
[4] abbreviates: Table 1, CHO cells, potassium current at -90 mV step, in presence of zinc pyrithione.

A value given as a limit tells only on which side of the number the result lay.

Sequence of human Kv7.5/7.3 (Q9NR82 whole entry): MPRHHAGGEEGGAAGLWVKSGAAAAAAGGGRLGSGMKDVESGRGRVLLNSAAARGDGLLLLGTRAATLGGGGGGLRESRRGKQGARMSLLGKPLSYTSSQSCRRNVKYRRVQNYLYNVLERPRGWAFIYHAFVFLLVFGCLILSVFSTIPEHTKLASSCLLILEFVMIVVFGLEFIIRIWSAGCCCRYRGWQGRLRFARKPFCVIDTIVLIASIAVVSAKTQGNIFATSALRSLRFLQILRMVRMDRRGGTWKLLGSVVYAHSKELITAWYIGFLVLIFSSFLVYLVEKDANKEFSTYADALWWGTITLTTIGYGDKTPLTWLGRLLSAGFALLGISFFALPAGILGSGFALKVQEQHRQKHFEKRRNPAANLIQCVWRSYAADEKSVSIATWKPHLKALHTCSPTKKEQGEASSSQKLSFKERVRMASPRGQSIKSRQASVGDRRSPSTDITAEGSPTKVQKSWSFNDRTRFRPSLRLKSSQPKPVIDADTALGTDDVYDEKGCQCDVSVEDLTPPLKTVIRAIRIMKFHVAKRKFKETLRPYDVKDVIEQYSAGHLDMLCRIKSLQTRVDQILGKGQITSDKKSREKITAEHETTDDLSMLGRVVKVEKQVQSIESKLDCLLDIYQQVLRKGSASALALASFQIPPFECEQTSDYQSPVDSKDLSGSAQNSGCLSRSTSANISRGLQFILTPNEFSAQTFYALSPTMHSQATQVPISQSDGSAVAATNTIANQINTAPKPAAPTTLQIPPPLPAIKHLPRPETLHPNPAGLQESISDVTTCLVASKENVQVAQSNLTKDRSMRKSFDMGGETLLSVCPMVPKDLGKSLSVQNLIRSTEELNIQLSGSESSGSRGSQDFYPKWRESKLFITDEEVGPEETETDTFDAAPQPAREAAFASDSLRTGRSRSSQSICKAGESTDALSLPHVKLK
Sequence of human Kv7.5/7.3 (O43525 whole entry): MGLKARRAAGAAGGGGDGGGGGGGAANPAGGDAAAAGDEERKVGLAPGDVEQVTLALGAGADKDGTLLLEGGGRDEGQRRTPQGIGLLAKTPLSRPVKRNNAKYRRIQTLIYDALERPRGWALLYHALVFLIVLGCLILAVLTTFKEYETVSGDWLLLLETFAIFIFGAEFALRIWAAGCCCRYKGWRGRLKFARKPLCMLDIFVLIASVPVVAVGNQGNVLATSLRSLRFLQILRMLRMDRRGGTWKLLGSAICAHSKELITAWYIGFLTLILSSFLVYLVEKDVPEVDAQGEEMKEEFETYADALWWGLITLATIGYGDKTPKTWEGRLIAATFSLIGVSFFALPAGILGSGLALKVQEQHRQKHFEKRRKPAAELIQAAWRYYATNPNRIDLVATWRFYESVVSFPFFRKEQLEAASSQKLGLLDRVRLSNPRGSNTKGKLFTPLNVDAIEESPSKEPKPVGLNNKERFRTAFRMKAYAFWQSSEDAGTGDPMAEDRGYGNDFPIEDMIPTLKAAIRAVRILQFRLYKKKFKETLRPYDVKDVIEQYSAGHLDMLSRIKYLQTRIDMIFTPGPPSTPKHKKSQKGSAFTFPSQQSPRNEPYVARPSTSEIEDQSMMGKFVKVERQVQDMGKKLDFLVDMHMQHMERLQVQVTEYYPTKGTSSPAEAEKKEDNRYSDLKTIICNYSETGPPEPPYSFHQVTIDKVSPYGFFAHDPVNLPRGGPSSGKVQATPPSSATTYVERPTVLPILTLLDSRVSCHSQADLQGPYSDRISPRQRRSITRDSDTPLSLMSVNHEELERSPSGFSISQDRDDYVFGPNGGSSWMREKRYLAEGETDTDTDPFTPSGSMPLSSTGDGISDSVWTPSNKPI
Sequence of human Kv7.2 (O43526 whole entry): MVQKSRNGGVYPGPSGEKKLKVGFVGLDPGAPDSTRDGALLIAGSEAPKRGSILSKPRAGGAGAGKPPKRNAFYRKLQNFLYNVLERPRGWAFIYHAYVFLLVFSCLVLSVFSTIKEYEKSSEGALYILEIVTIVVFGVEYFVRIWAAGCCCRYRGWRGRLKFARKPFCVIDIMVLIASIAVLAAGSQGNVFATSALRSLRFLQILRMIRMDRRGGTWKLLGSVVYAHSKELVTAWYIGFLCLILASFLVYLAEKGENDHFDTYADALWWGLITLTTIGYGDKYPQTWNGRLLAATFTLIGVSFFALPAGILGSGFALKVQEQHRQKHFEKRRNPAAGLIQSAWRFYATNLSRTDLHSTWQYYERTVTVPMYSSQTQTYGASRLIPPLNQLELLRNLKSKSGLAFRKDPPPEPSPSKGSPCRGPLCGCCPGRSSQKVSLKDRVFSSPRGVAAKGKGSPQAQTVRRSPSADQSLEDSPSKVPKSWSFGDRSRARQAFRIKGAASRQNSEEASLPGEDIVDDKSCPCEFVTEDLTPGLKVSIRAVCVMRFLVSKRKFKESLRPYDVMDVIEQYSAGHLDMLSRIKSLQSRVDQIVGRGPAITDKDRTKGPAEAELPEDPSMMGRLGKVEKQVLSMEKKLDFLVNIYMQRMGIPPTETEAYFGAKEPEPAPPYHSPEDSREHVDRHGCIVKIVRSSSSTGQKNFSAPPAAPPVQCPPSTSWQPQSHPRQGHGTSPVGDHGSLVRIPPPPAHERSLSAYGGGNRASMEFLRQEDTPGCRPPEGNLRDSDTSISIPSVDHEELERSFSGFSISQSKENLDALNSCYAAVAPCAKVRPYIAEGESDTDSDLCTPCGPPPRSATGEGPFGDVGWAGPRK

On to `O=C(NC1CC2(CCC2)C1)NC(CO)c1ccnc(OCC(F)(F)F)c1` (stereo not shown) [Example 13, 1-[2-hydroxy-1-[2-(2,2,2-trifluoroethoxy)pyridin-4-yl]ethyl]-3-spiro[3.3]heptan-2-ylurea], for which the EC50 in series [1] (setting [4]) is 0.07 µM.

As for `O=C(NCc1ccnc(OC(F)F)c1)NC1CCC2(CCC2)OC1` (stereo not shown) [Example 32, 1-[[2-(difluoromethoxy)pyridin-4-yl]methyl]-3-(5-oxaspiro[3.5]nonan-7-yl)urea], in series [1] (setting [4]), the EC50 is 0.55 µM. Take `O=C(NCc1ccnc(OC(F)F)c1)NC1COC2(CCC2)C1` (stereo not shown) [Example 22, 1-[[2-(difluoromethoxy)pyridin-4-yl]methyl]-3-(5-oxaspiro[3.4]octan-7-yl)urea]: the microsomal CLint at 0.5 μM in series [2] came to 10.6 µL/min/mg. For the same compound, the EC50 in series [1] (setting [4]) worked out at 1.44 µM. Regarding `O=C(NCc1ccnc(OC(F)F)c1)NC1COC2(CCCC2)C1` (stereo not shown) [Example 3, 1-[[2-(difluoromethoxy)pyridin-4-yl]methyl]-3-(1-oxaspiro[4.4]nonan-3-yl)urea], the EC50 in series [1] (setting [4]) is 0.5 µM. Turning to `O=C(NCc1ccnc(OC(F)F)c1)N[C@@H]1CC2(CCC2)[C@@H]1O` [Example 28, 1-[[2-(difluoromethoxy)pyridin-4-yl]methyl]-3-[(2R,3S)-3-hydroxyspiro[3.3]heptan-2-yl]urea], the EC50 in series [3] is more than 30 µM; in series [1] (setting [4]), 0.5 µM; in series [1] (Table A), 0.5 µM. In addition, the Kv7.5/7.3/Kv7.2 selectivity ratio in series [3] is more than 60.

As to `O=C(NCc1ccnc(OC(F)F)c1)NC1COC12CCCCC2` (stereo not shown) [Example 20, 1-[[2-(difluoromethoxy)pyridin-4-yl]methyl]-3-(1-oxaspiro[3.5]nonan-3-yl)urea], the EC50 in series [1] (setting [4]) amounted to 8.43 µM. On to `O=C(NCc1ccnc(OCC2CC2)c1)NC1CC2(CCC2)C1` [Example 7, 1-[[2-(cyclopropylmethoxy)pyridin-4-yl]methyl]-3-spiro[3.3]heptan-2-ylurea], for which the EC50 in series [1] (setting [4]) is 0.05 µM. For the compound `O=C(NCc1ccnc(OC(F)F)c1)NC1CCC2(CC1)CC2(F)F` (stereo not shown) [Example 31, 1-[[2-(difluoromethoxy)pyridin-4-yl]methyl]-3-(2,2-difluorospiro[2.5]octan-6-yl)urea], the microsomal CLint at 0.5 μM in series [2] amounted to 18.8 µL/min/mg. Besides, the EC50 in series [1] (setting [4]) was found to be 0.14 µM. Regarding `O=C(NCc1ccnc(OC(F)F)c1)NC1CCC2(C1)CC2(F)F` (stereo not shown) [Example 19, 1-[[2-(difluoromethoxy)pyridin-4-yl]methyl]-3-(2,2-difluorospiro[2.4]heptan-6-yl)urea], the EC50 was more than 30 µM in series [3], 0.35 µM in series [1] (setting [4]) and 0.35 µM in series [1] (Table A). In series [3], the Kv7.5/7.3/Kv7.2 selectivity ratio is on record as more than 86. Take `O=C(NCc1ccnc(OC(F)F)c1)NC1CC2(CC2)C1` [Example 8, 1-[[2-(difluoromethoxy)pyridin-4-yl]methyl]-3-spiro[2.3]hexan-5-ylurea]: in series [2], the microsomal CLint at 0.5 μM is 5.2 µL/min/mg. The EC50 in series [1] (setting [4]) stood at 0.06 µM. In the case of `O=C(NCc1ccnc(OC(F)F)c1)NC1CC2(CC(F)C2)C1` (stereo not shown) [Example 16, 1-[[2-(difluoromethoxy)pyridin-4-yl]methyl]-3-(2-fluorospiro[3.3]heptan-6-yl)urea], the microsomal CLint at 0.5 μM in series [2] worked out at 10.7 µL/min/mg. Also, the EC50 in series [1] (setting [4]) was 0.15 µM.

Regarding `O=C(NCc1ccnc(OC(F)F)c1)NC1CC2(C1)CC2(F)F` (stereo not shown) [Example 15, 1-[[2-(difluoromethoxy)pyridin-4-yl]methyl]-3-(2,2-difluorospiro[2.3]hexan-5-yl)urea], the microsomal CLint at 0.5 μM in series [2] stood at 11.3 µL/min/mg. Also, in series [1] (setting [4]), the EC50 came out at 3.1 µM.

`O=C(NCc1ccnc(OC(F)F)c1)NC1CC2(CCC2)C1` [Example 4, 1-[[2-(difluoromethoxy)pyridin-4-yl]methyl]-3-spiro[3.3]heptan-2-ylurea]: the EC50 in series [1] (setting [4]) amounted to 0.02 µM.

On to `O=C(NCc1ccnc(OC(F)F)c1)NC1CC12CCC2` (stereo not shown) [Example 23, 1-[[2-(difluoromethoxy)pyridin-4-yl]methyl]-3-spiro[2.3]hexan-2-ylurea], for which the EC50 in series [3] was more than 30 µM; in series [1] (setting [4]), 1.94 µM; in series [1] (Table A) it was 1.94 µM. Besides, the Kv7.5/7.3/Kv7.2 selectivity ratio in series [3] is more than 15. Take `O=C(NCc1ccnc(OC(F)F)c1)NC1COC2(CCCCC2)C1` (stereo not shown) [Example 30, 1-[[2-(difluoromethoxy)pyridin-4-yl]methyl]-3-(1-oxaspiro[4.5]decan-3-yl)urea]: in series [1] (setting [4]), the EC50 is 0.45 µM. On to `O=C(NCc1ccnc(-n2cccn2)c1)NC1CCOC2(CCCC2)C1` (stereo not shown) [Example 2, 1-(6-oxaspiro[4.5]decan-9-yl)-3-[(2-pyrazol-1-ylpyridin-4-yl)methyl]urea], for which the EC50 in series [1] (setting [4]) was 8.49 µM. On the same count and under the same terms, in the case of `CC(F)COc1cc(CNC(=O)NC2CC3(CCC3)C2)ccn1` (stereo not shown) [Example 6, 1-[[2-(2-fluoropropoxy)pyridin-4-yl]methyl]-3-spiro[3.3]heptan-2-ylurea] it was 0.06 µM; in that of `O=C(NCc1ccnc(OC(F)F)c1)NC1CCC2(CCC2)C1` (stereo not shown) [Example 11, 1-[[2-(difluoromethoxy)pyridin-4-yl]methyl]-3-spiro[3.4]octan-7-ylurea], 0.02 µM; in that of `O=C(NCc1ccnc(OC(F)F)c1)NC1(CO)CC2(CCC2)C1` [Example 18, 1-[[2-(difluoromethoxy)pyridin-4-yl]methyl]-3-[2-(hydroxymethyl)spiro[3.3]heptan-2-yl]urea], 0.41 µM. Turning to `CC(F)(F)COc1cc(CNC(=O)NC2CC3(CCC3)C2)ccn1` [Example 5, 1-[[2-(2,2-difluoropropoxy)pyridin-4-yl]methyl]-3-spiro[3.3]heptan-2-ylurea], in series [1] (setting [4]), the EC50 was determined as 0.02 µM. Take `O=C(NCc1ccnc(OCC(F)CF)c1)NC1CC2(CCC2)C1` (stereo not shown) [Example 29, 1-[[2-(2,3-difluoropropoxy)pyridin-4-yl]methyl]-3-spiro[3.3]heptan-2-ylurea]: the EC50 in series [1] (setting [4]) is 0.1 µM. As for `O=C(NCc1ccnc(OC(F)F)c1)NC1C(F)(F)C12CCC2` (stereo not shown) [Example 24, 1-[[2-(difluoromethoxy)pyridin-4-yl]methyl]-3-(2,2-difluorospiro[2.3]hexan-1-yl)urea], the values for the EC50 in series [3], in series [1] (setting [4]) and in series [1] (Table A) were more than 30 µM, 0.34 µM and 0.34 µM, respectively. The Kv7.5/7.3/Kv7.2 selectivity ratio in series [3] is recorded as more than 89. In the case of `O=C(NCc1ccnc(C(F)(F)F)c1)NC1CC2(CCC2)C1` [Example 10], the EC50 in series [1] (setting [4]) stood at 0.19 µM.

As a reminder, the EC50 is the midpoint of the concentration-response curve. The microsomal CLint is the rate of metabolic loss divided by the concentration.
